Source: publication PMC8623273, “Novel N7-Arylmethyl Substituted Dinucleotide mRNA 5′ cap Analogs: Synthesis and Evaluation as Modulators of Translation” (Pharmaceutics, 2021)
Where two headings read alike, the source gives them in different places.

Key:
eIF4E = eIF4E (Mus musculus, UniProt P63073); experiment: fluorescence anisotropy (FA) competition assay with eIF4E; type: binding; settings: Table S2; for EC50: 25 °C, probe m^7GTP-triazol-FAM 10 nM, eIF4E 100 nM; for Kd: calculated from EC50
Source text: The KD values determined from the high-throughput assay were in qualitative agreement with data from time-synchronized fluorescence quenching titration, justifying the use of the former for evaluation of the whole set of caps. […] To additionally verify the binding affinity data (especially for 1q and 1r, as mentioned above), we determined the binding affinities for all analogs using another independent assay, based on fluorescence anisotropy. The KD data determined by this method correlated very well with the results reported above (Table S2, Figure S2).
Fractions of the compounds were independently tested using a different method based on fluorescence anisotropy (FA). These experiments were performed on a Synergy™ H1 plate reader in 96-well, black, non-binding assay plates. Each well contained appropriate buffer (50 mM HEPES/KOH pH 7.2, 100 mM KCl, 0.5 mM EDTA i 1 mM DTT), the fluorescent probe m^7GTP-triazol-FAM (10 nM), substrate (in a 2.08-fold dilution, starting from 60 μM) and protein eIF4E (100 nM). The m^7GTP-triazol-FAM was synthesized as describer earlier. All measurements were performed at 25 °C. Determined EC50 values were means ± SD of three independent experiments. The dissociation constants KD were then calculated using the equation described by Nikolovska-Coleska as described earlier.

hDcpS = target: T1, hDcpS (Homo sapiens, UniProt Q96C86); type: in vitro ADME; settings: 100 μM compound, 20 nM hDcpS; for hDcpS Assay: fraction of the cap remaining after 1 h incubation with DcpS: 37 °C
T1 sequence (Q96C86 1-337): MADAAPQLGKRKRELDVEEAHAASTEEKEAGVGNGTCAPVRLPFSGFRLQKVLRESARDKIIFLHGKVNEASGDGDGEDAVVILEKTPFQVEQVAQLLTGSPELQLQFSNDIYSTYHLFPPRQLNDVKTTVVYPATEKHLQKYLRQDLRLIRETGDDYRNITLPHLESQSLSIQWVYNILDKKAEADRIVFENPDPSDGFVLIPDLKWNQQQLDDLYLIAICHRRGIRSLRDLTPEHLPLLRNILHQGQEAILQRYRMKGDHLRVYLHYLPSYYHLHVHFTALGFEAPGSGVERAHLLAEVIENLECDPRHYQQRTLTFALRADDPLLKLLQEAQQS
Method: Susceptibility to decapping scavenger (DcpS) is one of the factors that could potentially influence the cellular stability of mono- and dinucleotide cap analogs designed as translational inhibitors. Therefore, we studied the susceptibility of arylmethyl-modified dinucleotides to DcpS. The compounds (at 100 μM concentration each) were incubated with 20 nM of hDcpS, and the hydrolysis progress at different time points was analyzed via RP HPLC and compared to m^7GpppG (Figure 4 and Figure S3).
The enzymatic activity of DcpS was assayed at 37 °C in 50 mM Tris∙HCl, pH 7.6 containing 200 mM KCl, 0.5 mM EDTA. DcpS cleavage assays were carried out with 100 μM of the tested compound and 20 nM (monomer) of the hDcpS. Enzymatic reaction progress was examined after 30, 60 and 180 min. As a control, a sample was examined before adding enzyme. Aliquots of 15 μL were terminated by heat inactivation of the enzyme for 3 min at 98 °C. The samples were analyzed via RP HPLC equipped with a Supelcosil LC-18-T column (4.6 × 250 mm, 5 μm, flow rate 1.3 mL/min).

[1] = test system: cap-dependent translation in rabbit reticulocyte lysate (RRL); experiment: inhibition of cap-dependent translation in rabbit reticulocyte lysate (RRL); type: biochemical
Method: After determining the affinity for eIF4E and susceptibility to DcpS, we evaluated the analogs as inhibitors of protein translation in rabbit reticulocyte lysates (RRL). To enable better assessment of how these two factors influenced inhibitory properties, we performed two sets of experiments. In the first set, cap analogs were added to RRL along with luciferase-encoding reporter mRNA followed by a protein activity (luminescence) readout after 1 h, whereas in the second set cap analogs were additionally preincubated in RRL for 1 h prior to addition of mRNA. Based on previously reported findings, we expected that in the second experimental setup, cap analogs susceptible to DcpS would lose their inhibitory potency, whereas compounds resistant to DcpS would remain similarly active.
The ability of the N7-benzyl cap analogues to inhibit cap-dependent translation was assayed in a rabbit reticulocyte lysate (RRL) system. Two sets of experiments were performed. In both variants, in vitro translation reactions (10 μL total volume) contained a tested cap analog (inhibitor) and an in vitro transcribed, ARCA-capped mRNA encoding Gaussia luciferase at 1 μg/mL final concentration. In experimental variant A, cap analogues at concentrations in the range of 0 to 64 μM and mRNA were added to the reaction mixture at the same time. Reactions were incubated at 30 °C for 60 min and then stopped by freezing in liquid nitrogen. In experimental variant B, the cap analogues were added at concentrations in the range of 0 to 160 μM. Reactions were pre-incubated at 30 °C for 60 min prior to addition of mRNA; after addition of mRNA incubation was continuous at 30 °C for 60 min and then stopped by freezing in liquid nitrogen. To detect luminescence from Gaussia luciferase, 50 μL of 10 ng/mL h-coelenterazine (NanoLight, Norman, OK, USA) in PBS was added to 10 μL of RRL and the luminescence was measured with a Synergy H1 (BioTek, Winooski, VT, USA) microplate reader.

[2] = RRL, cap analog and mRNA added at the same time (no pre-incubation), 60 min, 30 °C, read-out: Translation Inhibition IC50
[3] = cap analog incubated in RRL for 1 h prior to adding mRNA, read-out: Translation Inhibition IC50 (value in brackets) (converted)

eIF4E, sequence (P63073 whole entry): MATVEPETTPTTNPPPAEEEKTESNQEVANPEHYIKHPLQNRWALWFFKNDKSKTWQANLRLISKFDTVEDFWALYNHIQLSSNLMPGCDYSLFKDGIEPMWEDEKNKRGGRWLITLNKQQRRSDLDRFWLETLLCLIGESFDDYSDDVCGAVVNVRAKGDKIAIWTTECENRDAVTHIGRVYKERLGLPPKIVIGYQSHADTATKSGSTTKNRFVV

Row | SMILES | EC50 (eIF4E) | Kd (eIF4E) | conversion after 1 h of incubation with hDcpS (hDcpS) | hDcpS Assay: fraction of the cap remaining after 1 h incubation with DcpS (hDcpS) | IC50 [1, 2] | IC50 [1, 3] | susceptibility to hDcpS (in words) (hDcpS)
1 | Nc1nc(O)c2c(n1)n([C@@H]1O[C@H](COP(=O)(O)OP(=O)([O-])OP(=O)(O)OC[C@H]3O[C@@H](n4cnc5c(=O)[nH]c(N)nc54)[C@H](O)[C@@H]3O)[C@@H](O)[C@H]1O)c[n+]2Cc1ccc(Br)cc1 [1i, 4-Br-Bn^7GpppG] | 210 ± 10 nM | 52 ± 3 nM | ~70% | 0.60 | 6400 ± 1000 nM | 22200 nM | 
2 | CC(C)c1ccc(C[n+]2cn([C@@H]3O[C@H](COP(=O)(O)OP(=O)([O-])OP(=O)(O)OC[C@H]4O[C@@H](n5cnc6c(=O)[nH]c(N)nc65)[C@H](O)[C@@H]4O)[C@@H](O)[C@H]3O)c3nc(N)nc(O)c32)cc1 [1e, 4-iPrBn^7GpppG] | 1300 ± 90 nM | 444 ± 33 nM |  | 0.94 | 15200 ± 3100 nM |  | Lower susceptibility to hydrolysis
3 | Nc1nc(O)c2c(n1)n([C@@H]1O[C@H](COP(=O)(O)OP(=O)([O-])OP(=O)(O)OC[C@H]3O[C@@H](n4cnc5c(=O)[nH]c(N)nc54)[C@H](O)[C@@H]3O)[C@@H](O)[C@H]1O)c[n+]2Cc1ccc(F)c(F)c1 [1k, 3,4-di-F-Bn^7GpppG] | 880 ± 80 nM | 301 ± 30 nM | ~70% | 0.70 | 8200 ± 1100 nM | 21400 nM | 
4 | CO[C@@H]1[C@H](O)[C@@H](COP(=O)(O)OP(=O)([O-])OP(=O)(O)OC[C@H]2O[C@@H](n3cnc4c(=O)[nH]c(N)nc43)[C@H](O)[C@@H]2O)O[C@H]1n1c[n+](Cc2ccc(Cl)cc2)c2c(O)nc(N)nc21 [1r, 4-Cl-Bn^7GmpppG] | 190 ± 20 nM | 45 ± 7 nM |  | 0.99 | 6000 ± 900 nM |  | resistant to hDcpS
5 | CO[C@@H]1[C@H](O)[C@@H](COP(=O)(O)OP(=O)([O-])OP(=O)(O)OC[C@H]2O[C@@H](n3cnc4c(=O)[nH]c(N)nc43)[C@H](O)[C@@H]2O)O[C@H]1n1c[n+](Cc2ccccc2)c2c(O)nc(N)nc21 [1q, Bn^7GmpppG] | 180 ± 30 nM | 40 ± 11 nM |  | 0.97 | 3700 ± 500 nM | 8200 nM | resistant to hDcpS
6 | Nc1nc(O)c2c(n1)n([C@@H]1O[C@H](COP(=O)(O)OP(=O)([O-])OP(=O)(O)OC[C@H]3O[C@@H](n4cnc5c(=O)[nH]c(N)nc54)[C@H](O)[C@@H]3O)[C@@H](O)[C@H]1O)c[n+]2Cc1ccccc1 [1a, Bn^7GpppG] | 270 ± 20 nM | 74 ± 23 nM | approximately 50% | 0.51 | 7400 ± 1400 nM | 9600 nM | 
